{"source": "patent US7273715B2", "about": "(priority 2003, dated 2007)", "key": {"GS-9005 hydrolase A [1]": {"target": "T1, GS-9005 hydrolase A (Homo sapiens, UniProt P42785)", "T1 construct": "Varying amounts of purified GS-9005 hydrolase A and control enzymes; from tissue; host or cells: human peripheral blood mononuclear cells (PBMC), purified by Q15 flow-through, SP-Sepharose, Butyl Sepharose HIC and lentil lectin chromatography", "T1 sequence (P42785 46-496)": "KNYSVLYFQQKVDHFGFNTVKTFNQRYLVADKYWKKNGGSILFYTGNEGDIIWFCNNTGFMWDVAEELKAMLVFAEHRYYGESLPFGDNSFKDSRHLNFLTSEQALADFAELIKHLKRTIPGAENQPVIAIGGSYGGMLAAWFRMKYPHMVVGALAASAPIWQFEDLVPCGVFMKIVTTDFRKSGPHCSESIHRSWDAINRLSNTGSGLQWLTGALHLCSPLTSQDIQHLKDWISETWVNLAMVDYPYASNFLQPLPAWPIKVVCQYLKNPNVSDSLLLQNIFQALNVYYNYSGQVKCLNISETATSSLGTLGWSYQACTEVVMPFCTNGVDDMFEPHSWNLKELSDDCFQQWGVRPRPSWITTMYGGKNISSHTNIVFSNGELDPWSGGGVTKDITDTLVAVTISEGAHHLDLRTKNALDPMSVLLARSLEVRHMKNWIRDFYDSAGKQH", "format": "biochemical"}, "GS-9005 hydrolase A [2]": {"target": "T1, GS-9005 hydrolase A", "format": "biochemical", "remark": "listed apart in the source"}, "[3]": {"target": "Human Prolylcarboxypeptidase (Homo sapiens, UniProt P42785)", "details": "read-out: Inhibition profile, ProlylcarboxyPeptidase; cited from earlier work"}, "[4]": {"details": "pH 6.5, read-out: IC50 (inhibition profile, 9005 Hydrolase A)"}, "[5]": {"details": "read-out: concentration at which GS-9005 hydrolase A is inhibited by 50%"}}, "note": "Like-named read-outs stand apart in the source and are kept apart here. Peptide text beside a SMILES is read from it. * marks the point of attachment. Cbz = O=C(OCc1ccccc1)*", "data": [{"smiles": "C=C(OC(C)C)C(C)OP(=O)(CCNCc1ccc(C[C@H](NC(=O)O[C@H]2CO[C@H]3OCC[C@H]32)[C@H](O)CN(CC(C)C)S(=O)(=O)c2ccc(OC)cc2)cc1)Oc1ccccc1", "note": "(stereo partly shown) [Compound X]", "values": [{"measurement": "specific activity of GS-9005 hydrolase A against the compound (comparison in words)", "setting": "GS-9005 hydrolase A [1]", "value": "greater than its specific activity against Compound V"}]}, {"smiles": "CCOC(=O)[C@H](C)OP(=O)(COc1ccc(C[C@H](NC(=O)O[C@H]2CO[C@H]3OCCC32)[C@H](O)CN(CC(C)C)S(=O)(=O)c2ccc(OC)cc2)cc1)Oc1ccccc1", "note": "(stereo partly shown) [Compound A]", "values": [{"measurement": "specific activity of GS-9005 hydrolase A against the compound (comparison in words)", "setting": "GS-9005 hydrolase A [1]", "value": "greater than its specific activity against Compound L"}]}, {"smiles": "O=c1oc(Cl)c(Cl)c2ccccc12", "note": "[DCI, 3,4 dichloroisocoumarin]", "values": [{"measurement": "inhibition of GS-9005 hydrolase A (in words)", "setting": "GS-9005 hydrolase A [2]", "value": "inhibited"}]}, {"smiles": "O=S(=O)(F)Cc1ccccc1", "note": "[PMSF]", "values": [{"measurement": "IC50", "setting": "[3]", "value": "100 to 300", "unit": "µM"}, {"measurement": "IC50", "setting": "GS-9005 hydrolase A [2]; [4]", "value": 200, "unit": "µM"}, {"measurement": "IC50", "setting": "GS-9005 hydrolase A [2]; [5]", "value": "~200", "unit": "µM"}]}, {"smiles": "CCOC(=O)[C@H](C)OP(=O)(CCN1CCN(C(=O)c2c3c(c(O)c4ncccc24)C(=O)N(Cc2ccc(F)cc2)C3)CC1)Oc1ccccc1", "note": "(stereo partly shown) [Compound Y]", "values": [{"measurement": "specific activity of GS-9005 hydrolase A against the compound (comparison in words)", "setting": "GS-9005 hydrolase A [1]", "value": "greater than its specific activity against Compound B"}]}, {"smiles": "CCOC(=O)[C@H](C)NP(=O)(COc1ccc(Cn2c(COC(N)=O)nc(C(C)C)c2Sc2cc(Cl)cc(Cl)c2)cc1)Oc1ccccc1", "note": "(stereo partly shown) [Compound KK]", "values": [{"measurement": "specific activity of GS-9005 hydrolase A against the compound (comparison in words)", "setting": "GS-9005 hydrolase A [1]", "value": "greater than its specific activity against Compound FF"}]}, {"smiles": "C=C(OC(C)C)[C@H](C)N[P@](=O)(CO[C@H](C)Cn1cnc2c(C)ncnc21)Oc1ccccc1", "note": "[Compound K]", "values": [{"measurement": "specific activity of GS-9005 hydrolase A against the compound (comparison in words)", "setting": "GS-9005 hydrolase A [1]", "value": "approximately equivalent specific activity"}]}, {"smiles": "CCOC(=O)[C@H](C)OP(=O)(CCNCc1ccc(Cn2c(COC(N)=O)nc(C(C)C)c2Sc2cc(Cl)cc(Cl)c2)cc1)Oc1ccccc1", "note": "(stereo partly shown) [Compound GG]", "values": [{"measurement": "specific activity of GS-9005 hydrolase A against the compound (comparison in words)", "setting": "GS-9005 hydrolase A [1]", "value": "greater than its specific activity against Compound DD"}]}, {"smiles": "C=C(OCC)[C@H](C)OP(=O)(CCNC(=O)c1c2c(c(O)c3ncccc13)C(=O)N(Cc1ccc(F)cc1)C2)Oc1ccccc1", "note": "(stereo partly shown) [Compound Z]", "values": [{"measurement": "specific activity of GS-9005 hydrolase A against the compound (comparison in words)", "setting": "GS-9005 hydrolase A [1]", "value": "approximately equivalent specific activity"}]}, {"smiles": "CCOC(=O)[C@H](C)OP(=O)(COc1ccc(C[C@@H]2[C@H](O)[C@@H](O)[C@@H](Cc3ccc(OC)cc3)N(Cc3ccc4[nH]ncc4c3)C(=O)N2Cc2ccc3[nH]ncc3c2)cc1)Oc1c(C)cccc1C", "note": "(stereo partly shown) [Compound EE]", "values": [{"measurement": "specific activity of GS-9005 hydrolase A against the compound (comparison in words)", "setting": "GS-9005 hydrolase A [1]", "value": "greater than its specific activity against Compound W"}]}, {"smiles": "CCOC(=O)[C@H](C)NP(=O)(COc1ccc(C[C@@H]2[C@H](O)[C@@H](O)[C@@H](Cc3ccc(OC)cc3)N(Cc3ccc4[nH]ncc4c3)C(=O)N2Cc2ccc3[nH]ncc3c2)cc1)Oc1ccccc1", "note": "(stereo partly shown) [Compound CC]", "values": [{"measurement": "specific activity of GS-9005 hydrolase A against the compound (comparison in words)", "setting": "GS-9005 hydrolase A [1]", "value": "approximately equivalent specific activity"}]}, {"smiles": "COC(=O)[C@H](C)N[P@](=O)(CO[C@H](C)Cn1cnc2c(N)ncnc21)Oc1ccccc1", "note": "[Compound U]", "values": [{"measurement": "specific activity of GS-9005 hydrolase A against the compound (comparison in words)", "setting": "GS-9005 hydrolase A [1]", "value": "approximately equivalent specific activity"}]}, {"smiles": "CCOC(=O)[C@H](C)NP(=O)(COc1ccc(C[C@@H]2[C@H](O)[C@@H](O)[C@@H](Cc3ccc(OC)cc3)N(Cc3ccc4[nH]ncc4c3)C(=O)N2Cc2ccc3[nH]ncc3c2)cc1)N[C@@H](C)C(=O)OCC", "note": "[Compound BB]", "values": [{"measurement": "specific activity of GS-9005 hydrolase A against the compound (comparison in words)", "setting": "GS-9005 hydrolase A [1]", "value": "approximately equivalent specific activity"}]}, {"smiles": "CCSc1ccc(CN2CCCN(Cc3cccnc3)CC2)cc1", "note": "[Compound JJ]", "values": [{"measurement": "specific activity of GS-9005 hydrolase A against the compound (comparison in words)", "setting": "GS-9005 hydrolase A [1]", "value": "greater than its specific activity against Compound AA"}]}, {"smiles": "O=C[C@@H]1CCCN1C(=O)[C@@H]1CCCN1C(=O)OCc1ccccc1", "note": "[Cbz-pro-pro-COH, Carboxybenzoyl-Pro-Pro-COH] (Cbz-Pro-Pro-aldehyde)", "values": [{"measurement": "IC50", "setting": "[3]", "value": 1, "unit": "µM"}, {"measurement": "inhibition of GS-9005 hydrolase A (in words)", "setting": "GS-9005 hydrolase A [2]", "value": "inhibited"}, {"measurement": "IC50", "setting": "GS-9005 hydrolase A [2]; [4]", "value": 1, "unit": "µM"}, {"measurement": "IC50", "setting": "GS-9005 hydrolase A [2]; [5]", "value": "~1", "unit": "µM"}]}, {"smiles": "COC(=O)[C@H](C)NP(=O)(COc1ccc(Cn2c(COC(N)=O)nc(C(C)C)c2Sc2cc(Cl)cc(Cl)c2)cc1)Oc1ccccc1", "note": "(stereo partly shown) [Compound LL]", "values": [{"measurement": "specific activity of GS-9005 hydrolase A against the compound (comparison in words)", "setting": "GS-9005 hydrolase A [1]", "value": "approximately equivalent specific activity"}]}, {"smiles": "CCOC(=O)COP(=O)(COc1ccc(Cn2c(COC(N)=O)nc(C(C)C)c2Sc2cc(Cl)cc(Cl)c2)cc1)Oc1ccccc1", "note": "(stereo not shown) [Compound HH]", "values": [{"measurement": "specific activity of GS-9005 hydrolase A against the compound (comparison in words)", "setting": "GS-9005 hydrolase A [1]", "value": "greater than its specific activity against Compound I"}]}]}
